The results in this text go back to ChEMBL document CHEMBL1136684, “Novel and potent human and rat beta3-adrenergic receptor agonists containing substituted 3-indolylalkylamines” (Bioorg Med Chem Lett, 2003).

Test [1] concerns the target T1, Beta-3 adrenergic receptor (Homo sapiens, UniProt P13945). Nature of the test: Agonism of recombinant human beta-3 adrenergic receptor assayed by measuring cAMP accumulation in CHO cells expressing beta3-AR. Format: functional, cell-based.
Target sequence in this assay (P13945 whole entry): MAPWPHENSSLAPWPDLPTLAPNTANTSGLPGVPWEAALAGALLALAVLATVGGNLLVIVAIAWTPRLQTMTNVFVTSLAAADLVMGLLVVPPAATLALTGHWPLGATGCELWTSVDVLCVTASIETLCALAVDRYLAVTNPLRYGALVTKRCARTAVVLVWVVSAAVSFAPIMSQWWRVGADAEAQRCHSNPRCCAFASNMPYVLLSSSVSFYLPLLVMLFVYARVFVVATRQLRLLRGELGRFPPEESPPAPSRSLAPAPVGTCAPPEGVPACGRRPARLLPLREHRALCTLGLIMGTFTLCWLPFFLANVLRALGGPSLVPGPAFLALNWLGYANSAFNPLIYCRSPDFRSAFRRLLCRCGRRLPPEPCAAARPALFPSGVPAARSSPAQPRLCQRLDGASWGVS
Test [2] has as its target T1, Beta-3 adrenergic receptor. In words: Agonistic activity to recombinant human beta-3 adrenergic receptor expressed in CHO cells by measuring cAMP accumulation. The class given is functional, cell-based. On the technique in general: Cyclic AMP is a second messenger, typically raised through Gs and lowered through Gi signalling.
Target sequence in this assay (P13945 whole entry, looked up): as the sequence (P13945 whole entry) above
The target of test [3] is T1, Beta-3 adrenergic receptor. In words: Agonistic activity against human Beta-3 adrenergic receptor by measuring cAMP accumulation in CHO cells expressing beta3-AR with respect to isoproterenol at a concentration of 10e-7 M. Format: functional, cell-based.
Target sequence in this assay (P13945 whole entry, looked up): as the sequence (P13945 whole entry) above
Test [4] has as its target Beta-1 adrenergic receptor (Homo sapiens, UniProt P08588). In words: Agonistic activity against human Beta-1 adrenergic receptor by measuring cAMP accumulation in CHO cells expressing beta3-AR. Format: functional, cell-based.
For test [5], the target named is Beta-3 adrenergic receptor (Rattus norvegicus) (UniProt P26255). Nature of the test: Agonistic activity against rat Beta-3 adrenergic receptor as cAMP accumulation in CHO cells expressing beta3-AR.
Test [6] shares this target. The description is as above. The source holds these as a separate data set.
Test [7] addresses T1, Beta-3 adrenergic receptor. In words: Agonistic activity against human Beta-3 adrenergic receptor by measuring cAMP accumulation in CHO cells expressing Beta-3 adrenergic receptor with respect to isoproterenol at a concentration of 10e-7 M. The class given is functional, cell-based.
Target sequence in this assay (P13945 whole entry, looked up): as the sequence (P13945 whole entry) above
The target of test [8] is T1, Beta-3 adrenergic receptor. Nature of the test: (§1) Agonistic activity against human Beta-3 adrenergic receptor by measuring cAMP accumulation in CHO cells expressing Beta-3 adrenergic receptor. The class given is functional, cell-based.
Target sequence in this assay (P13945 whole entry): as above
In test [9] the target is T1, Beta-3 adrenergic receptor. Nature of the test: Agonistic activity against human beta-3-adrenergic receptor by measuring cAMP accumulation in CHO cells expressing Beta-3 adrenergic receptor. The class given is functional, cell-based.
Target sequence in this assay (P13945 whole entry, looked up): as the sequence (P13945 whole entry) above
Test [10] has as its target T1, Beta-3 adrenergic receptor. Nature of the test: Agonistic activity against human Beta-3 adrenergic receptor by measuring cAMP accumulation in CHO cells. The class given is functional, cell-based.
Target sequence in this assay (P13945 whole entry, looked up): as the sequence (P13945 whole entry) above
Test [11] concerns the target T2, Beta-2 adrenergic receptor (Homo sapiens, UniProt P07550). Nature of the test: (§2) Agonistic activity against human Beta-2 adrenergic receptor by measuring cAMP accumulation in CHO cells expressing beta3-AR. The class given is functional, cell-based.
Target sequence in this assay (P07550 whole entry, looked up): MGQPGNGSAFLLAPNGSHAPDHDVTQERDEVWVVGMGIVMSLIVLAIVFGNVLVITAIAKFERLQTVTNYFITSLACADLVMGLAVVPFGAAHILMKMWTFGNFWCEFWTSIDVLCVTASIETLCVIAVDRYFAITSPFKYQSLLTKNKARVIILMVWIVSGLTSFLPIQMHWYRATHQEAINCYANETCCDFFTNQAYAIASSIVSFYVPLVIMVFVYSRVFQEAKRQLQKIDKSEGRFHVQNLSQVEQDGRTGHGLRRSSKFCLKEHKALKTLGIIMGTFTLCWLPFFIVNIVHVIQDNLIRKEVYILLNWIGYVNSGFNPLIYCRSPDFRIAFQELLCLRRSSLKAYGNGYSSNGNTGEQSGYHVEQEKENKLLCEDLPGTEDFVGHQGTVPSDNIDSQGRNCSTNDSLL
Test [12] addresses T2, Beta-2 adrenergic receptor. The test is described as §2. Format: functional, cell-based. This is another data set of the same source.
Target sequence in this assay (P07550 whole entry): as the sequence (P07550 whole entry, looked up) above
In test [13] the target is T1, Beta-3 adrenergic receptor. The description is as §1. The class given is functional, cell-based. The source holds these as a separate data set.
Target sequence in this assay (P13945 whole entry, looked up): as the sequence (P13945 whole entry) above

Beta-1 adrenergic receptor, sequence (P08588 whole entry): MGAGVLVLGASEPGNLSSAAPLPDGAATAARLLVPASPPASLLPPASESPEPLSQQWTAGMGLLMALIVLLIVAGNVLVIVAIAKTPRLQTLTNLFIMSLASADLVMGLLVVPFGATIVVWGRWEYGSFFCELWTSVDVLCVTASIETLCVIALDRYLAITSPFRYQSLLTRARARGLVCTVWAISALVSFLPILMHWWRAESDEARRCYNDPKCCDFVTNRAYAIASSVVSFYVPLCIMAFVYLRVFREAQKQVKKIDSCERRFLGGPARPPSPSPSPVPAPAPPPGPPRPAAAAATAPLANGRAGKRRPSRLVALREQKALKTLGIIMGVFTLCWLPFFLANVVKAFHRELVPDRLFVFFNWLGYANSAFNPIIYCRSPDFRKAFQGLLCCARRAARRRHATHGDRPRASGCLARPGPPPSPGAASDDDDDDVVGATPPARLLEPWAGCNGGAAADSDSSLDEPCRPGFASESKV

As to `CC(Cc1c[nH]c2c(OCC(=O)O)cccc12)NC[C@H](O)c1cccc(Cl)c1` (some centres undefined), in [1], the EC50 is 0.11 nM. The Intrinsic activity in test [2] was 124%.

`Cc1cccc2c(CCNCC(O)c3cccc(Cl)c3)c[nH]c12` (centres undefined) yielded a cAMP accumulation in test [3] of 0%.

On to `Cn1cc(CCNCC(O)c2cccc(Cl)c2)c2ccccc21` (centres undefined), for which the cAMP accumulation in test [3] stood at 6%.

For the molecule `CC(Cc1c[nH]c2c(O)cccc12)NC[C@H](O)c1cccc(Cl)c1` (some centres undefined), the EC50 in test [1] was 1.7 nM. The Intrinsic activity in [2] came out at 128%.

Take `CC(Cc1c[nH]c2c(OCc3ccccc3)cccc12)NC[C@H](O)c1cccc(Cl)c1` (some centres undefined): in test [1], the concentration giving a half-maximal response (EC50) was found to be 11 nM. Also, the Intrinsic activity in [2] stood at 114%.

With `Cc1cccc2[nH]cc(CC(C)NCC(O)c3cccc(Cl)c3)c12` (centres undefined), in test [1], the EC50 was found to be 96 nM. In test [2], the Intrinsic activity came out at 165%.

For the molecule `C[C@@H](Cc1c[nH]c2c(OCC(=O)O)cccc12)NC[C@H](O)c1cccc(Cl)c1`, the EC50 in test [4] was 14 nM; in [1] it was 10 nM; in test [6], 1.2 nM. In addition, the Intrinsic activity worked out at 106% in test [5] and 84% in test [2].

Consider `CCC(Cc1c[nH]c2ccccc12)NCC(O)c1cccc(Cl)c1` (centres undefined), for which the cAMP accumulation in [7] is 20%.

Molecule `Cc1[nH]c2ccccc2c1CCNCC(O)c1cccc(Cl)c1` (centres undefined) displayed a cAMP accumulation in test [3] of 5%.

On to `COC(=O)COc1cccc2c(CC(C)NC[C@H](O)c3cccc(Cl)c3)c[nH]c12` (some centres undefined), for which the half-maximal effective concentration (EC50) in test [1] came to 0.92 nM. In addition, the Intrinsic activity in [2] turned out to be 102%.

In [8], `CC(C)(Cc1c[nH]c2ccccc12)NCC(O)c1cccc(Cl)c1` (centres undefined) gave an EC50 of 70 nM. Further, the Intrinsic activity in test [9] was determined as 118%.

Molecule `OC(CNCCc1c[nH]c2ccccc12)c1cccc(Cl)c1` (centres undefined) showed an EC50 in test [8] of 69 nM. In addition, the Intrinsic activity in test [10] was 99%.

As for `CCOc1cccc2c(CC(C)NC[C@H](O)c3cccc(Cl)c3)c[nH]c12` (some centres undefined), the Intrinsic activity in [2] turned out to be 96%.

For `COc1cccc2c(CC(C)NC[C@H](O)c3cccc(Cl)c3)c[nH]c12` (some centres undefined), in test [2], the Intrinsic activity is 114%.

Regarding `C[C@@H](Cc1c[nH]c2ccccc12)NC[C@@H](O)c1cccc(Cl)c1`, the values for the EC50 in test [4], in test [1] and in test [6] were 140 nM, 3300 nM and 33 nM, respectively. Also, the Intrinsic activity in [5] amounted to 108%; in [2], 62%.

Consider `C[C@H](Cc1c[nH]c2ccccc12)NC[C@@H](O)c1cccc(Cl)c1`, for which the EC50 in test [4] came to 47 nM; in test [1], 220 nM; in test [12], 330 nM; in test [6], 11 nM. Also, the results for the Intrinsic activity in [5], in [2] and in test [11] were 108%, 119% and 23%, respectively.

For the molecule `COc1cccc2c(CC(C)NCC(O)c3cccc(Cl)c3)c[nH]c12` (centres undefined), the Intrinsic activity in test [2] was 113%.

As to `CC(Cc1c[nH]c2cc(Cl)ccc12)NCC(O)c1cccc(Cl)c1` (centres undefined), in [1], the EC50 was found to be 28 nM. The Intrinsic activity in test [2] amounted to 131%.

For the molecule `CC(Cc1c[nH]c2ccccc12)NCC(O)c1cccc(Cl)c1` (mixture of isomers) [listing 1 of 2 here], the EC50 stood at 12 nM in [1], 23 nM in test [12] and 0.97 nM in test [6].

For `CC(Cc1c[nH]c2c(OC(C)C)cccc12)NC[C@H](O)c1cccc(Cl)c1` (some centres undefined), in test [1], the EC50 turned out to be 2.8 nM. The Intrinsic activity in test [2] worked out at 87%.

Turning to `Cc1ccc2c(CC(C)NCC(O)c3cccc(Cl)c3)c[nH]c2c1` (centres undefined), the Intrinsic activity in test [2] amounted to 95%.

Take `CC(Cc1c[nH]c2ccccc12)NCC(O)c1cccc(Cl)c1` (centres undefined) [listing 1 of 2 here]: the Intrinsic activity in test [13] came to 114%.

Consider `C[C@H](Cc1c[nH]c2ccccc12)NC[C@H](O)c1cccc(Cl)c1`, for which the EC50 was determined as 1.9 nM in test [4], 5.4 nM in test [1], 25 nM in test [12] and 0.36 nM in test [6]. Also, the Intrinsic activity in test [5] was found to be 98%; in test [2], 110%; in test [11], 50%.

`COc1ccc2c(CC(C)NCC(O)c3cccc(Cl)c3)c[nH]c2c1` (centres undefined): the Intrinsic activity in test [2] came out at 102%.

In the case of `C[C@H](Cc1c[nH]c2c(OCC(=O)O)cccc12)NC[C@H](O)c1cccc(Cl)c1` [RAFABEGRON], the EC50 came out at 6.4 nM in test [4], 0.062 nM in test [1], 13 nM in [12] and 0.016 nM in test [6]. Besides, the Intrinsic activity came to 110% in test [5], 116% in [2] and 26% in test [11].

As to `Cc1cccc2[nH]cc(CCNCC(O)c3cccc(Cl)c3)c12` (centres undefined), in test [3], the cAMP accumulation was 20%.

Regarding `COc1cccc2c(C[C@@H](C)NC[C@H](O)c3cccc(Cl)c3)c[nH]c12`, the Intrinsic activity in [5] was 147%; in test [2] it was 89%; in [11], 46%. For the same molecule, the EC50 stood at 0.36 nM in test [1], 5.2 nM in test [12] and 0.15 nM in test [6].

`Cc1ccc2[nH]cc(CCNCC(O)c3cccc(Cl)c3)c2c1` (centres undefined) registered a cAMP accumulation in [3] of 7%.

In the case of `CC(Cc1c[nH]c2ccccc12)NCC(O)c1cccc(Cl)c1` (mixture of isomers) [listing 2 of 2 here], the Intrinsic activity stood at 107% in test [5], 114% in test [2] and 46% in test [11].

As to `COc1cccc2c(C[C@H](C)NC[C@H](O)c3cccc(Cl)c3)c[nH]c12`, the Intrinsic activity in test [5] stood at 121%; in test [2] it was 51%. In addition, the results for the EC50 in test [1] and in test [6] were 120 nM and 6.5 nM, respectively.

`CC(Cc1c[nH]c2ccccc12)NCC(O)c1cccc(Cl)c1` (centres undefined) [listing 2 of 2 here] had a 50% effective concentration (EC50) in [8] of 12 nM.

`C[C@H](Cc1ccc(OCC(=O)O)cc1)NC[C@H](O)c1cccc(Cl)c1`: the Intrinsic activity in test [11] amounted to 31%.

On to `CC(Cc1c[nH]c2cc(Br)ccc12)NCC(O)c1cccc(Cl)c1` (centres undefined), for which the EC50 in test [1] worked out at 38 nM. Moreover, in [2], the Intrinsic activity was found to be 98%.

Regarding `CCCOc1cccc2c(CC(C)NC[C@H](O)c3cccc(Cl)c3)c[nH]c12` (some centres undefined), the EC50 in test [1] worked out at 14 nM. For the same molecule, the Intrinsic activity in [2] was 103%.

In turn, `OC(CNC1CCc2[nH]c3ccccc3c2C1)c1cccc(Cl)c1` (centres undefined) displayed a cAMP accumulation in test [3] of 0%.

Turning to `C[C@@H](Cc1c[nH]c2ccccc12)NC[C@H](O)c1cccc(Cl)c1`, the results for the EC50 in test [4], in test [1] and in [6] were 9.4 nM, 240 nM and 13 nM, respectively. In addition, the Intrinsic activity in test [5] is 96%; in test [2] it was 97%.

By EC50 is commonly meant the concentration that produces a half-maximal response.
